# Measurements as given in US20030088888A1, “Method of plant transformation” (priority 2001, published 2003).
# Tested on: gypsophila stem explants
# Test: Transient transformation (GUS expression) of stem explants from GA3-pretreated plants after cocultivation with Agrobacterium tumefaciens EHA105/pKIWI105
# Type: in vivo, Gypsophila paniculata L.
# Experimental: Unrooted cuttings of gypsophila (Gypsophila paniculata L.) cultivars Arbel, Pestival, Flamingo, Yokinko, New Hope and P2000 were obtained from Danziger “DAN” Flower Farm (Moshav Mishmar Hashiva, Israel). Stem cuttings with six or eight filly mature leaves (not counting the apical leaves which were not fully expanded), harvested from greenhouse-grown plants and stored for up to 2 weeks at 4° C., were used to prepare stem explants (Zuker A, Ahroni A, Shejtman H and Vainstein A (1997). Adventitious shoot regeneration from leaf explants of Gypsophila paniculata L. Plant Cell Reports, 16: 775-778; Ahroni A, Zuker A, Rozen Y, Shejtman H and Vainstein A (1997). An efficient method for adventitious shoot regeneration from stem-segment explants of gwpsophila. Plant Cell Tiss Org Cult 49: 101-106). Twenty days prior to harvesting of cuttings (unless otherwise i5 indicated), mother plants were sprayed once with approximately 4 ml. of 1 mM GA3.
# Cuttings were rinsed with 70% ethanol, then sterilized for 10 min in 1.5% (w/v) sodium hypochlorite and rinsed three times for 10 min each in sterile water. The leaves and shoot apices of the cutting were discarded and the three primary nodes were immersed for 10 min in a bacterial (A. tumefaciens EHA105/pKIWI105) suspension (OD550=1). Inoculated stem explants were then blotted dry and cultured in an upright position on the cocultivation medium for a period of up to 5 days. Following cocultivation, stem explants were histochemically evaluated for transient GUS expression by counting the number of GUS-expressing stem explants, as well as the number of blue spots per explant under a stereo-microscope.
# A histochemical assay of GUS activity was performed according to Stomp (1992). Tissue samples were incubated for a few hours to overnight at 37° C. in a 0.1% (w/v) X-Gluc (5-bromo-4-chloro-3-indolyl β-D-glucuronic acid sodium salt, Biosynth Inc., Staad, Switzerland) solution containing 0.1 M sodium phosphate buffer (pH 7.0), 10 mM EDTA, and 0.1% (w/v) Triton X-100. When necessary, green tissues were bleached, after staining, by immersion in 50% (v/v) EtOH for a few hours, followed by several washes with 70% EtOH. It should be noted that no background GUS activity was detectable in any of the analyzed tissues of control plants.
compound,measurement,setting,value
C=C1C[C@]23C[C@@]1(O)CC[C@H]2[C@@]12C=C[C@H](O)[C@@](C)(C(=O)O1)[C@H]2[C@@H]3C(=O)O [GA3],increase in frequency of transient transformation events (number of blue spots per explant),"cv. Arbel, explants from 20 day versus 10 day GA3 treated plants",ca. 3 times
same,percentage of GUS-expressing stem explants out of total number of explants inoculated,"cv. Arbel, explants from plants 20 days after GA3 treatment (1 mM spray), 5-day cocultivation with EHA105/pKIWI105",90%
same,percentage of inoculated explants expressing GUS,"cvs. Pestival and Flamingo, GA3-treated plants, cocultivation with EHA105/pKIWI105, dark then light, 5 days",ca. 75%
same,transient transformation (qualitative),"explants from cuttings of plants treated with GA3, versus no transient transformation without GA3",efficient and highly reproducible transient transformation was obtained
